The test system of experiment [1] is male Wistar rats. Put plainly: In vivo model of ischaemic acute renal failure induced by transient bilateral renal artery occlusion. Particulars: rat, 15 mg/kg IP. The procedure:
The experiment was carried out using male Wistar rats (Janvier Labs, C.S. 4105, Saint-Berthevin F-53941, France), weighing 200-260 g on the day of surgery. Before surgery, the animals were housed in groups 2-4 in polysulfone cages (floor area=1500 cm^2) under standard conditions: room temperature (22±2° C.), hygrometry (55±10%), light/dark cycle (12 h/12 h), air replacement (15-20 volumes/hour), water and food (SAFE, ref. A04) ad libitum. The animals were allowed to acclimate to environmental conditions for at least 5 days prior to experimentation. Rats were anesthetised with sodium pentobarbital (60 mg/kg i.p.), and placed on a servocontrolled heating table to maintain rectal temperature close to 37° C. After endotracheal intubation animals were mechanically ventilated. The abdominal cavity was exposed by medial laparotomy, both left and right renal arteries will be identified, carefully dissected from the renal vein and clamped for 40 min. During this clamping period the abdominal cavity was kept closed. The clamps were released, perfusion to the kidneys re-established and the abdominal cavity sutured. Animals where reperfusion were incomplete, as judged visually, were excluded. Post-surgical analgesia was ensured by subcutaneous administration of buprenorphine (10 50 μg/kg, sc) twice daily for 2 days (including the day of surgery). After surgery, the animals were individually housed. The animals were observed and weighted daily and the sutures were examined and disinfected with antiseptic solution (povidone-iodine) if needed.
A follow-up of body weight and mortality were performed for all animals, the day of surgery and during the 7 days following ischaemia. In order to determine creatinine and blood urea nitrogen (BUN) concentrations in plasma, 6 blood samples of at least 0.3 mL were taken from each animal: before surgery and then on days 1, 2, 3 (before vehicle/SBL01 administrations), 4 and 7 after surgery. The following parameters were measured: Creatinine concentration in plasma, Blood urea nitrogen concentration, and Body weight. […]

Experiment [2] concerns Primary cultures of porcine RPE. Put plainly: Cellular model of retinal pigment epithelium (RPE) phototoxicity (A2E + blue light). In kind it is cell-based. Particulars: 10 and 30 μM, A2E 30 μM + blue light, 24 h after induction; FIG. 29. The procedure:
Primary cultures of porcine RPE are prepared weekly and run on 96-well culture plates after one week in vitro. The cells are incubated with the molecule 10 minutes before induction of phototoxicity. A2E (30 μM) is added to the culture medium 19 hours before cell illumination by a device equipped with blue light emitting leds (λ=[…]). Cell survival and death are detected 24 hours after induction of phototoxicity by staining cells with Hoechst (a nuclear marker) and ethidium (a marker for dead cell nuclei). Images of each well are acquired on a fluorescence microscope equipped with a motorised stage driven by Metamorph software, and cell survival is quantified by inhouse program. The molecules are tested at 10 and 30 μM unless toxicity at this concentration. The negative control corresponds to cells treated with A2E and vehicle. The positive control corresponds to cells treated with A2E and crocetin (100 μM) 48 h before illumination. The treatments are done in quadruplicate and the experiments are performed 4 times.

This is an account of results in US20240116923A1, “USE OF INDOLE, 6- AND 7-AZAINDOLE DERIVATIVES AS INHIBITORS OF FERROPTOSIS REGULATED CELL DEATH” (Seabelife, priority 2021, published 2024).

On to `Oc1ccc(-c2cc3cccnc3[nH]2)cc1` [Compound 7, 4-(1H-pyrrolo[2,3-b]pyridin-2-yl)phenol], for which the creatinine plasma level result in experiment [1] (Day 2 after surgery, vs vehicle, FIG. 40) is on record as “significant decrease”. Besides, the urea plasma level entry in experiment [1] (Day 2 after surgery, vs vehicle, FIG. 41) was “significant decrease”. Further, the “renal function during artery occlusion (protection against renal ischaemic failure)” value in experiment [1] (compared to the vehicle) is listed as “protective effect”.

For `Oc1ccc(-c2cc3ccccc3[nH]2)cc1` [Compound 1, 4-(1H-indol-2-yl)phenol], the “cell survival of RPE cells after induction of phototoxicity” value in experiment [2] is on record as “protect RPE cells significantly against phototoxicity”.
